Source: publication PMC7248311, “Bisphenol A Diglycidyl Ether (BADGE) and Bisphenol Analogs, but Not Bisphenol A (BPA), Activate the CatSper Ca^2+ Channel in Human Sperm” (Frontiers in Endocrinology, 2020)
“Also recorded” adds a separate entry of the source. Like-named read-outs stand apart in the source and are kept apart here.

Columns and labels:
[1] = tested on: progesterone-induced Ca^2+ signals in human sperm cells; assay: Inhibition of Ca^2+ signals induced by 100 nM progesterone after 5 min pre-incubation with bisphenols; assay type: cell-based; settings: for Dose-dependent inhibition of progesterone-induced Ca^2+ signals (in words): 100 nM progesterone, 5 min pre-incubation; for IC50: Homo sapiens, Sperm, read-out: IC50, μM Mean
Experimental: (§1) Changes in the free intracellular Ca^2+ concentration [Ca^2+]i in human sperm cells were measured in 384 multi-well-plates in a fluorescence plate reader (Fluostar Omega, BMG Labtech, Germany) at 30°C as described in Rehfeld et al. ([41]). Briefly, sperm cells were incubated with the fluorescent Ca^2+ indicator Fluo-4, AM (10 μM) for 45 min at 37°C. […] Fluorescence was recorded before and after addition of 25 μL bisphenol solutions, negative control (buffer with vehicle), positive control (progesterone, 5 μM final concentration) manually with an electronic multichannel pipette to duplicate wells. […] For the inhibition studies mean basal fluorescence (F0) was defined as the last 5 cycles before addition of 100 nM progesterone.
We compared the amplitude of the Ca^2+ signals induced by 100 nM of progesterone in human sperm cells after 5 min of pre-incubation with serially diluted doses of the bisphenols or a negative buffer control.

[2] = tested on: human sperm cells; assay: Ca^2+ fluorimetric assay: Ca^2+ signals ([Ca^2+]i) induced in human sperm cells; assay type: cell-based; settings: for Induction of Ca^2+ signals in human sperm cells (in words): 10 μM; for EC50 / activation at 10 µM: Homo sapiens, Sperm; for EC50: read-out: EC50, μM Mean; for activation at 10 µM: read-out: Mean relative peak Ca^2+ signal at 10 μM (in %) (n = 3); for EC05, μM Mean: lowest effective dose from dose response of induced Ca^2+ signals
Experimental: as §1
The bisphenols were screened at a concentration of 10 μM, along a positive control (progesterone, 5 μM), and negative control (HTF^+ with vehicle). Changes in [Ca^2+]i were recorded for 4 min after addition of the chemicals and controls. We calculated the relative peak Ca^2+ signal in % induced by the bisphenols, by dividing the peak Ca^2+ signal with that of the paired positive control, in order to compare data from the different experiments.

[3] = tested on: human sperm; parameters: method as in PMID 27686954; settings: cited from earlier work
[4] = tested on: human sperm cells; settings: cited from earlier work
[5] = tested on: human sperm; parameters: method as in doi:10.20883/jms.2016.5; settings: 0.1 nM−1 μM ref 40; cited from earlier work
[6] = tested on: G protein-coupled estrogen receptor (GPER); parameters: method as in PMID 28858478; settings: low doses ref 46; cited from earlier work
[7] = tested on: voltage-activated Ca^2+ channels; settings: cited from earlier work
[8] = tested on: capacitated human sperm cells; assay: Image cytometry-based acrosome reaction assay; assay type: cell-based; settings: 10 μM, 30 min, vs negative control
Experimental: The amount of live acrosome reacted sperm cells was measured using an image cytometry-based acrosome reaction assay, as described in Rehfeld et al. ([41]). Briefly, capacitated sperm cells (10 × 10^6/ml) were divided into equal aliquots and mixed thoroughly with a staining solution containing 5 μg/mL FITC-PSA, 0.5 μg/mL PI, and 10 μg/mL Hoechst in HTF^+. Bisphenols (10 μM) were added to the aliquots of stained capacitated sperm cells together with the positive controls, ionomycin (10 μM), and progesterone (10 μM). As a negative control, HTF^+ with 0.2% DMSO was used. After addition of bisphenols and controls the samples were mixed well and placed on a gentle mixing heating plate at 37°C. After 30 min of incubation, the aliquots were mixed thoroughly by pipetting and a 50 μL sample was drawn and added to a 100 μL aliquot of an immobilizing solution containing 0.6 M NaHCO3 and 0.37% (v/v) formaldehyde in distilled water. This solution was mixed well by pipetting, immediately loaded in an A2 slide (ChemoMetec A/S, Allerød, Denmark) and assessed in a NC-3000 image cytometer (ChemoMetec A/S, Allerød, Denmark). The following protocol was applied: 2-color flexicyte with Hoechst defining the sperm cells to be analyzed; Ex475-Em560/35: exposure time 3,000 ms, Ex530-Em675/75: exposure time 500 ms, with a minimum of 5,000 analyzed cells (positive for Hoechst). […]

[9] = tested on: human sperm cells; assay: Sperm penetration into a viscous medium (modified Kremer's test, methylcellulose); assay type: cell-based; settings: 10 μM, 60 min, counted at 2 cm, vs negative control
Experimental: Assessment of sperm penetration was done using sperm penetration tests with 4,000 cP methylcellulose (1% w/v) as an artificial viscous medium as described in Alasmari et al. ([43]). The viscous methylcellulose (1% w/v) medium was prepared in HTF^+ by adding 10 mg methylcellulose per mL HTF^+ and mixing it by rotation overnight at RT. The viscous methylcellulose (1% w/v) medium was introduced into glass capillary tubes [borosilicate microslides (VitroTubes) 0.20 mm × 2.0 mm × 10 cm (VitroCom, USA)] by capillary forces, by placing the glass tubes vertically in a 1.5 mL microfuge tube with 750 μL methylcellulose (1% w/v) for 15min. Care was taken to prevent air bubbles from entering the glass tubes. The end of the glass tube that was placed in the microfuge tube was sealed with wax (Hounisens laboratorieudstyr A/S, Denmark). […] The number of sperm cells were counted at 2 cm distance from the opening of the tube, with two fields in each of four planes counted. Throughout the study, all samples were counted by the same observer. Only experiments with a positive increment in cell density at 2 cm for the positive control compared to the negative control and with more than 40 sperm cells counted at 2 cm for the positive control were used for the analysis.

[10] = tested on: CatSper; assay: Induced Ca^2+ signals in absence or presence of CatSper inhibitor RU1968; settings: RU1968 30 μM; bisphenols 5–50 μM, progesterone 5 μM; n = 3
[11] = bisphenol 10 μM, peak Ca^2+ signal divided by that of progesterone 5 μM in the same experiment
[12] = Ca^2+ signals induced by 100 nM progesterone after pre-incubation, n = 3–5
[13] = dose response of induced Ca^2+ signals, n = 3–7

Structure (SMILES) | Dose-dependent inhibition of progesterone-induced Ca^2+ signals (in words) [1] | Induction of Ca^2+ signals in human sperm cells (in words) [2] | EC05, μM Mean ([2]; n = 3–7) [µM] | Induction of Ca^2+ signals in SKBR3 cells via GPER [6] | activation at 10 µM [2, 11] [%] | EC50 [2, 13] [µM] | other results
CC(C)(c1ccc(OCC2CO2)cc1)c1ccc(OCC2CO2)cc1 (stereo not shown) [BADGE, Bisphenol A diglycidyl ether] | dose-dependently inhibit | can induce Ca^2+ signals | 1.82 |  |  |  | EC50 [2]: 8.18 µM; activation at 10 µM [2]: 14.8%
CC(C)(c1ccc(O)cc1)c1ccc(O)cc1 [BPA, Bisphenol A] |  | induced no Ca^2+ signals; also recorded: do not induce Ca^2+ signals |  | induce Ca^2+ signals | 1.44 |  | Dose inducing mitochondrial dysfunction in human sperm [3]: ≥ 300 µM; Effect on [Ca^2+]i in single human sperm cells ([4]; 1 μM ref 40): rapid, transient increase; Effect on [Ca^2+]i in human sperm cells ([4]; 0.1, 1, and 10 μM ref 34): did not affect; Effect on human sperm motility parameters [5]: could affect human sperm motility parameters; Activation of other voltage-activated Ca^2+ channels [7]: activate; Inhibition of other voltage-activated Ca^2+ channels [7]: inhibit
Oc1ccc(C(c2ccc(O)cc2)(C(F)(F)F)C(F)(F)F)cc1 [BPAF, Bisphenol AF] | dose-dependently inhibit | can induce Ca^2+ signals | 0.36 | induce Ca^2+ signals |  |  | Live acrosome reacted sperm cells [8]: significant increase; IC50 [1]: 12.3 µM; EC50 [2]: 2.4 µM; activation at 10 µM [2]: 58%; Numbers of human sperm cells penetrating into a viscous medium [9]: significant increase
CCC(C)(c1ccc(O)cc1)c1ccc(O)cc1 [BPB, Bisphenol B] | dose-dependently inhibit | can induce Ca^2+ signals | 2.37 | induce Ca^2+ signals | 11.8 | 14.9 | IC50 [1, 12]: 39.9 µM
Oc1ccc(C(c2ccccc2)(c2ccccc2)c2ccc(O)cc2)cc1 [BPBP, Bisphenol BP] | all bisphenols, except BPBP, were able to dose dependently inhibit | can induce Ca^2+ signals | 0.38 |  | 9.09 | 0.79 | 
Cc1cc(C(C)(C)c2ccc(O)c(C)c2)ccc1O [BPC, Bisphenol C] | dose-dependently inhibit | can induce Ca^2+ signals | 0.70 |  | 21.7 | 10.3 | IC50 [1, 12]: 45.2 µM
CC(c1ccc(O)cc1)c1ccc(O)cc1 [BPE, Bisphenol E] |  | induced no Ca^2+ signals |  |  |  |  | activation at 10 µM [2]: 5.37%
Oc1ccc(Cc2ccc(O)cc2)cc1 [BPF, Bisphenol F] |  | induced no Ca^2+ signals |  | induce Ca^2+ signals | 5.09 |  | 
CC(C)c1cc(C(C)(C)c2ccc(O)c(C(C)C)c2)ccc1O [BPG, Bisphenol G] | dose-dependently inhibit | can induce Ca^2+ signals | 0.18 |  | 109 | 1.27 | Live acrosome reacted sperm cells [8]: significant increase; IC50 [1, 12]: 1.86 µM; Numbers of human sperm cells penetrating into a viscous medium [9]: significant increase
O=S(=O)(c1ccc(O)cc1)c1ccc(O)cc1 [BPS, Bisphenol S] |  | induced no Ca^2+ signals |  | induce Ca^2+ signals | 4.41 |  | 
CC(=O)[C@H]1CC[C@H]2[C@@H]3CCC4=CC(=O)CC[C@]4(C)[C@H]3CC[C@]12C [progesterone] |  |  |  |  |  |  | Inhibition of the induced Ca^2+ signal in the presence of RU1968 [10]: highly inhibited by RU1968
